Data reported in US7928090B2, “External preparation composition” (Lion Corporation, priority 2002, dated 2011).

Assays:
guinea pig skin = assay: Continuous irritative test of guinea pig skin (Draize method); format: in vivo, guinea pig (Hartley series); settings: 0.5% in ethanol/propylene glycol (7:3), 3 days straight, full marks 8 points
Procedure: Each left and right two spots (4 spots/head) of applying parts having a frame of 2 cm×2 cm were provided on the back of a shaved guinea pig (Hartley series, 7 weeks of age, female, N=10), and each 50 μL of an ethanol/propylene glycol (7:3) solution containing 0.5% of the respective acyl glucosamine derivatives shown in the following Table 1 was applied once a day on the respective frames.
A skin irritative score after application for 3 days straight was evaluated according to the following evaluation criteria (Draize method). The above irritative score was shown by the total points (full marks: 8 points) of erythema and edema.
Evaluation Criteria of Skin Irritative Score:
3: middle to strong erythema
4: very strong erythema to crust
1: very slight edema formation
2: slight edema formation
3: middle edema formation
4: strong edema formation

acne patients = assay: Acne-improvement evaluation; format: in vivo, human; settings: essence with 0.05%, one month; for Evaluation X (worsened), number of subjects / Evaluation Δ (no change), number of subjects / Evaluation ⊚ (notably improved), number of subjects / Evaluation ◯ (improved), number of subjects: applied on face several times a day; for Acne treating effect: percentage of subjects rated improved or better
Procedure: Prepared was an essence for acne shown in the following composition example in which 0.05% of various acyl glucosamine derivatives shown in the following Table 6 was blended. An essence which was not blended with an acyl glucosamine derivative was prepared as a control.
Sixty acne patients were picked up as subjects to apply everyday the respective essences on the faces thereof several times a day, and the therapeutic effect against the acnes was visually evaluated a month later according to four degrees of the following evaluation criteria.
In the four degree evaluation described above, improvement (∘) or better effect (⊚) was regarded as “effective for treating acnes”, and the subjects showing a treating effect were shown by a numerical value (percentage).

[1] = tested on: back skin of hairless mice irradiated with UVB; assay: Wrinkle-improving test; format: in vivo, hairless mice (hos: HR-1); settings: 0.05% in ethanol/propylene glycol (7:3), 100 μL once a day, five times a week, 8 weeks; versus control group
Procedure: (§1) Four (4) hairless mice per 1 group (hos: HR-1, 10 weeks of age, female) were irradiated on the back skin once a day with UVB at 50 mJ/cm^2 five times a week over a period of 10 weeks. After finishing irradiation, each 100 μL of an ethanol/propylene glycol (7:3) solution containing 0.05% of various acyl glucosamine derivatives shown in the following Table 3 was applied on the mouse back in a frequency of once a day and five times a week over 8 weeks.
After finishing application for 8 weeks, the degree of wrinkles was visually evaluated according to the following evaluation criteria and calculation equation. A control group applied with the ethanol/propylene glycol (7:3) solution was evaluated as a control in the same manner.
Evaluation Criteria of the Degree of Wrinkles:
Evaluation point 0: a lot of fine striations is present on the back and the flank; fine striations run in a direction from the head to the tail; and the striations appear or disappear with the motion of the mouse.
Evaluation point 1: all fine striations along the spine are not observed; a few shallow and coarse wrinkles run perpendicularly to the head-to-tail direction; and the striations appear or disappear with the motion of the mouse.
The respective bodies were evaluated by an evaluation point of a 0.5 unit to calculate an average point for the respective groups, and the wrinkle-improving rate was calculated for the respective groups according to the following equation (II). Wrinkle-improving rate (%)=[(average value of the control group−average value of a glucosamine derivative-applied group)/(average value of the control group)]×100 (II)

[2] = tested on: back skin of hairless mice irradiated with UVB; assay: Coarse texture-improving test; format: in vivo, hairless mice (hos: HR-1); settings: 0.05% in ethanol/propylene glycol (7:3), 100 μL, 4 weeks; texture intersection points relative to non-irradiated group (control 24)
Procedure: as §1, with “at 40” for “at 50”, “mJ/cm^2 three” for “mJ/cm^2 five”, “of 6” for “of 10”, “Table 4 or an ethanol/propylene glycol (7:3) solution as a control” for “Table 3”, “over 4” for “over 8”
After finishing application, a replica agent (brand name SILFLO®; manufactured by UK FLEXICO DEVELOPMENTS LTD.) was used to obtain a replica of a mouse back skin. A replica of a UV-non-irradiated group (4 heads) was obtained as a control in the same manner.
The enlarged photographs of the respective replicas were taken through a macro lens (magnification: four times), and the photographs were used to evaluate “coarsening of the texture”.
The coarseness of the texture was defined by a “number of texture intersection point”, wherein a point in which three or more sulci cutis are joined is counted as one intersection point, and the number of the texture intersection points present in a square of 1 cm×1 cm was counted on the replica photograph.
An average point for the respective groups was calculated, and the texture-improving rate was calculated according to the following equation (III). Texture-improving rate (%)=[(number of texture intersection of applied group)/(number of texture intersection point of non-irradiated group)]×100 (III)

[3] = tested on: skin roughness in the inside of a forearm of a human being; assay: Skin roughness-improving test (SDS-induced skin roughness); format: in vivo; settings: hydrophilic ointment with 0.05%, twice a day, 3 days; conductance relative to ointment with no tested substance = 100
Procedure: A 10% SDS solution was used to artificially form a skin roughness in the inside of a forearm of a human being, and a hydrophilic ointment blended with 0.05% of various acyl glucosamine derivatives shown in the following Table 5 was applied thereon twice a day.
The skin roughness-improving degree observed 3 days later after application was evaluated using a change in a stratum corneum water content as an index. The stratum corneum water content is measured in terms of a conductance (μS). The improving degree was shown by a relative value, wherein the conductance observed when applying the hydrophilic ointment blended with no acyl glucosamine derivative was set at 100, and the skin roughness-improving rate was calculated according to the following equation (IV). Skin roughness-improving rate (%)=[(conductance observed when applying the ointment blended with the tested substance)/(conductance observed when applying the ointment blended with no tested substance)]×100 (IV)

[4] = tested on: pigmentation on the backs of color guinea pigs; assay: Whitening evaluation (UV-induced pigmentation); format: in vivo; parameters: key: +++: notably improved; ++: improved; +: a little improved; ±: no change; settings: 0.05% in ethanol/propylene glycol (7:3), 30 μL once a day, five times a week, 4 weeks; visual change in pigmentation
Procedure: Back body hair of color guinea pigs were shaved by means of a hair clipper and a shaver, and they were irradiated with UV rays once a day, 4 times a week and 8 times in total, whereby 4 parts of pigmentation having an area of about 2.25 cm^2 were formed on the backs of the respective guinea pigs.
Each 30 μL of an ethanol/propylene glycol (7:3) solution containing 0.05% of various acyl glucosamine derivatives shown in the following Table 7 was applied thereon in a frequency of once a day and five times a week over 4 weeks, and a change in the pigmentation was visually evaluated according to four degrees of the following evaluation criteria. The solution containing no acyl glucosamine derivative was used for a comparative example.

[5] = Table 1, 50 μL once a day, total of erythema and edema

Row | Compound | Draize score (guinea pig skin; [5]) [points] | Evaluation X (worsened), number of subjects (acne patients) | Evaluation Δ (no change), number of subjects (acne patients) | Evaluation ⊚ (notably improved), number of subjects (acne patients) | Evaluation ◯ (improved), number of subjects (acne patients) | Draize score (guinea pig skin; Table 2, by stereoisomer ratio) [points] | other results
1 | CCCCCCCCCCCC(=O)N[C@H]1C(O)O[C@H](CO)[C@@H](O)[C@@H]1O (stereo partly drawn) [N-lauroyl-D-glucosamine] | 0.1 | 1 | 1 | 0 | 1 |  | 
2 | CC(C=CC1=C(C)CCCC1(C)C)=CC=CC(C)=CC(=O)N[C@H]1C(O)O[C@H](CO)[C@@H](O)[C@@H]1O (single isomer, unassigned) [N-retinoyl-D-glucosamine] |  | 0 | 0 | 4 | 2 |  | Wrinkle-improving rate [1]: 89%; Texture-improving rate [2]: 75%; Skin roughness-improving rate [3]: 127%; Acne treating effect (acne patients): 100%; Whitening-improving effect [4]: +++
3 | CC1=C(/C=C/C(C)=C/C=C/C(C)=C/C(=O)O)C(C)(C)CCC1 [Retinoic acid, reference compound] | 8.0 |  |  |  |  |  | 
4 | CCCCCCCCCCCCCCCCCCOCCOCCOCCOCCOCCOC(=O)N[C@H]1C(O)O[C@H](CO)[C@@H](O)[C@@H]1O (stereo partly drawn) [N-POE (5) octadecyletheroxycarbonyl-D-glucosamine] | 0.2 | 0 | 3 | 0 | 2 |  | Wrinkle-improving rate [1]: 73%; Texture-improving rate [2]: 92%; Skin roughness-improving rate [3]: 128%; Acne treating effect (acne patients): 40%; Whitening-improving effect [4]: ++
5 | CC(=O)OC[C@H]1OC(OC(C)=O)[C@H](NC(=O)/C=C(C)/C=C/C=C(C)/C=C/C2=C(C)CCCC2(C)C)[C@@H](OC(C)=O)[C@@H]1OC(C)=O (single isomer, unassigned) [1,3,4,6-tetra-O-acetyl-N-retinoyl-D-glucosamine (13-cis isom] |  |  |  |  |  | 0.0 | 
6 | CC(C)CCCCCCCCCCCCCCC(=O)N[C@H]1C(O)O[C@H](CO)[C@@H](O)[C@@H]1O (stereo partly drawn) [N-isostearoyl-D-glucosamine] | 0.1 | 0 | 2 | 0 | 3 |  | 
7 | CC(C=CC1=C(C)CCCC1(C)C)=CC=CC(C)=CC(=O)N[C@H]1C(O)O[C@H](CO)[C@@H](O)[C@@H]1O (single isomer, unassigned) [N-retinoyl-D-glucosamine (9-cis isomer/trans isomer = 0.5/99.5), N-retinoyl-D-glucosamine] |  |  |  |  |  | 0.1 | 
8 | CC(=O)OC[C@H]1OC(OC(C)=O)[C@H](NC(=O)/C=C(C)/C=C/C=C(C)/C=C/C2=C(C)CCCC2(C)C)[C@@H](OC(C)=O)[C@@H]1OC(C)=O (stereo partly drawn) [1,3,4,6-tetra-O-acetyl-N-retinoyl-D-glucosamine] | 0.0 |  |  |  |  |  | 
9 | CC(C=CC1=C(C)CCCC1(C)C)=CC=CC(C)=CC(=O)N[C@H]1C(O)O[C@H](CO)[C@@H](O)[C@@H]1O (single isomer, unassigned) [N-retinoyl-D-glucosamine (9-cis isomer/13-cis isomer/trans i] | 0.1 |  |  |  |  |  | 
10 | CC(C=CC1=C(C)CCCC1(C)C)=CC=CC(C)=CC(=O)N[C@H]1C(O)O[C@H](CO)[C@@H](O)[C@@H]1O (single isomer, unassigned) [N-retinoyl-D-glucosamine (13-cis isomer/trans isomer = 0.5/99.5), N-retinoyl-D-glucosamine] |  |  |  |  |  | 0.0 | 
11 | CC(=O)OC[C@H]1OC(OC(C)=O)[C@H](NC(=O)/C=C(C)/C=C/C=C(C)/C=C/C2=C(C)CCCC2(C)C)[C@@H](OC(C)=O)[C@@H]1OC(C)=O (single isomer, unassigned) [1,3,4,6-tetra-O-acetyl-N-retinoyl-D-glucosamine (cis isomer/] |  |  |  |  |  | 0.0 | 
12 | CCCCC/C=C\C/C=C\CCCCCCCC(=O)N[C@H]1C(O)O[C@H](CO)[C@@H](O)[C@@H]1O (stereo partly drawn) [N-linoleoyl-D-glucosamine] | 0.3 | 1 | 3 | 0 | 1 |  | 
13 | CC(=O)OC[C@H]1OC(OC(C)=O)[C@H](NC(=O)/C=C(C)/C=C/C=C(C)/C=C/C2=C(C)CCCC2(C)C)[C@@H](OC(C)=O)[C@@H]1OC(C)=O (single isomer, unassigned) [1,3,4,6-tetra-O-acetyl-N-retinoyl-D-glucosamine (9-cis isome] [listing 1 of 2 here] |  |  |  |  |  | 0.0 | 
14 | CCCCCCCC/C=C\CCCCCCCC(=O)N[C@H]1C(O)O[C@H](CO)[C@@H](O)[C@@H]1O (stereo partly drawn) [N-oleoyl-D-glucosamine] | 0.2 | 0 | 2 | 0 | 3 |  | 
15 | CC(C=CC1=C(C)CCCC1(C)C)=CC=CC(C)=CC(=O)N[C@H]1C(O)O[C@H](CO)[C@@H](O)[C@@H]1O (single isomer, unassigned) [N-retinoyl-D-glucosamine (cis isomer/trans isomer = 0/100), N-retinoyl-D-glucosamine] |  |  |  |  |  | 0.0 | 
16 | CC(=O)OC[C@H]1OC(OC(C)=O)[C@H](NC(=O)/C=C(C)/C=C/C=C(C)/C=C/C2=C(C)CCCC2(C)C)[C@@H](OC(C)=O)[C@@H]1OC(C)=O (single isomer, unassigned) [1,3,4,6-tetra-O-acetyl-N-retinoyl-D-glucosamine (9-cis isome] [listing 2 of 2 here] |  |  |  |  |  | 0.0 | 
